{"source": "patent US20250034191A1", "about": "“LIGININ FLOWER PRODUCTION AND USES THEREOF” (SILICYCLE INC., priority 2021, published 2025)", "key": {"[1]": {"system": "secreted IL6", "assay": "Interleukin 6 (IL6) secretions in coculture", "format": "cell-based, human", "excerpt": "To assess the effect of the test element on inflammation, we assayed extracellular concentrations of secreted IL6. The results were normalized by the number of fibroblasts and represented as a percentage of the solvent condition DMSO (FIG. 13)."}, "[2]": {"system": "reconstructed artificial human skin model (normal human epidermal keratinocytes)", "assay": "In vitro skin irritation, reconstructed human epidermis (OECD 439), MTT", "format": "cell-based", "details": "42 h treatment, 42 hours incubation", "procedure": "The purpose of this test is to evaluate if the tested material is, or is not a skin irritant, according to the method described in OECD 439. This method uses the human artificial skin model (EPISKIN™, EpiDerm™, Episkin™ RHE) to assess the skin irritation of chemical substances, mixtures and to properly label them to this respect if applicable.\nThe test is based on the evaluation of cell survival after the exposure to the substance through MTT assay and by comparison with epidermis treated with phosphate buffer only (negative control). The MTT method is a colorimetric assay that allows to determine the percentage of cells alive within an in vitro cultured tissue. This assay is based on the ability of the mitochondrial succinate dehydrogenase enzyme to metabolize the nitro-blue tetrazolium salt, giving a colored compound that can be measured by spectrophotometer reading. […]\nEpidermis units are treated with 1 mg/ml MTT solution (3-[4,5-dimethylthiazol-2-yl]-2,5-diphenyl tetrazolium bromide) for 3 h at 37° C. […] 2 aliquots of every sample are transferred to a 96 well plate for the reading. The absorbance is read at the wavelength of 570 nm with a colorimeter (Tecan model Infinite 200 PRO) equipped with a microplate reader."}, "[3]": {"system": "S. typhimurium TA 98", "assay": "Ames test (OECD 471), plate incorporation assay", "format": "cell-based, Salmonella typhimurium", "details": "TA 98 with S9, positive control, 3.0 μg/plate (Table 3)", "source_text": "The purpose of the test is to investigate the possible genotoxic activity exerted by the tested substance in bacterial strains of Salmonella typhimurium, with and without metabolic activation with S9.\nThe Ames test allows for detecting the induction of point mutations in nucleotide bases, such as deletions, insertions, transversions and frameshift mutations by using modified Salmonella typhimurium strains. These strains carry a defective gene in the histidine operon making them auxotroph for this amino acid (mutants His-which require histidine in the culture medium for growth). The method guiding principle is based on the reverse mutation phenomenon by which bacteria exposed to a mutagenic substance may change back and become again prototroph concerning histidine (His+). The bacterial cells in growth phase are exposed to different concentrations of the test agent and mutagenic activity is determined by the capability of the test substance to induce a significant increase in the number of revertant (histidine-independent mutant, His+) in comparison to the spontaneous reversions occurring in the control cultures.\nSome chemical agents are not directly mutagen but become so by following transformation and metabolic activation occurring in the organism by liver enzyme activity. To study this genotoxic effect, rat liver microsomal fraction (S9) has been added. The employ of S9 allows identifying substances that act as indirect mutagen.\nIn this assay, 5 bacterial strains TA 1535, TA100, TA 102, TA 1537 and TA98 have been used and their characteristics are illustrated in Table 3. Each tester strains contains a different type of mutation in the histidine operon. TA 1535 and TA 100 strains are specific testers for mutagens causing base substitutions. The TA 102 strain is used to detect mutagens that require an intact excision repair system. […] Furthermore, the TA 102 strain contains the multicopy plasmid, pAQ1, which confers tetracycline resistance. The frameshift tester strains used are TA 1537 and TA 98. TA 98, like TA 100, is ampicillin resistant. All S. typhimurium strains carry, along with the defect in the histidine gene (His−), a deep rough (rfa) character, a mutation that causes partial loss of the lipopolysaccharide barrier that coats the surface of the bacteria and increases permeability to large molecules. […] For technical reason, the deletion excising the uvrB gene extends through the bio gene and, consequently, these bacteria also require biotin for growth.\nThe study was performed using the plate incorporation assay with and without S9 mix. S9 is composed by Aroclor 1254 induced rat liver supplemented with glucose-6-phosphate and NADP (Moltox®). The experiment was performed in duplicate Petri dishes containing basal medium and a further layer of medium containing histidine+biotin, the Salmonella typhimurium suspension, the sample to be tested at different concentrations and, if the case of metabolic activation, a 5% S9 mix. Dishes were incubated for 48 hours at 37° C. When the incubation time was over, a basal bacterial growth was achieved limited by the amount of histidine in the medium and in add the growth of revertant colonies (his+). In particular, the basic number of revertant colonies is steady, different for each strain, due to the spontaneous mutation rate of the bacterial strain. If an increase in the number of revertant colonies is observed, this is proportional to the tested sample concentration and to its mutagen capability. […]"}, "[4]": {"system": "NADPH-oxidase complex", "details": "Zhang, Yi et al., American Journal of Hypertension, 2005; cited from earlier work"}}, "note": "Values joined by “and” are separate entries in the source; they are usually repeats but may differ in a detail not shown here. Equal values may be shown once."}
{"smiles": "C[C@@H]1C[C@H]2[C@@H]3CCC4=CC(=O)C=C[C@]4(C)[C@@]3(F)[C@@H](O)C[C@]2(C)[C@@]1(O)C(=O)CO", "note": "[Dexamethasone]", "values": [{"measurement": "IL6 secretions, normalized by number of fibroblasts", "setting": "[1]; D3, anti-inflammatory reference", "result": 25, "unit": "%"}, {"measurement": "IL6 secretions, normalized by number of fibroblasts", "setting": "[1]; D6, compared to the coculture control", "result": 85, "unit": "%"}]}
{"smiles": "CCCCCCCCCCCCOS(=O)(=O)[O-].[Na+]", "note": "[SLS 5%]", "values": [{"measurement": "Classification", "setting": "[2]", "result": "I (Irritant)"}, {"measurement": "% mean cell viability (ds)", "setting": "[2]; tested undiluted", "result": 0.93, "unit": "%"}]}
{"smiles": "Nc1ccc2cc3ccccc3cc2c1", "note": "[2AAn, 2-aminoanthracene]", "values": [{"measurement": "Statistically significant vs solvent control (p < 0.05)", "setting": "[3]", "result": "yes"}, {"measurement": "revertant, mean", "setting": "[3]", "result": 3320, "unit": "UFC/plate"}, {"measurement": "revertant, single replicates", "setting": "[3]", "result": "3353 UFC/plate and 3291 UFC/plate and 3316 UFC/plate"}]}
{"smiles": "COc1cc(C(C)=O)ccc1O", "note": "[Apocynin, apocynin]", "values": [{"measurement": "inhibition of the NADPH-oxidase complex", "setting": "[4]", "result": "effective inhibitor"}]}
